Data published in patent publication US10030020B2, “Spirocycle compounds and methods of making and using same” (Abide Therapeutics, Inc., priority 2016, dated 2018).
Like-named read-outs stand apart in the source and are kept apart here.

Assays:
MAGL [1] = target: T1, MAGL (Mus musculus (Mouse), UniProt O35678); assay: In vitro competitive activity-based protein profiling (mouse brain membrane fraction or cell lysates), MAGL band; type: biochemical; details: for inhibition at 1 µM: read-out: MAGL % Inh 1 μM (mouse); for IC50: competitive ABPP
T1 sequence (O35678 whole entry): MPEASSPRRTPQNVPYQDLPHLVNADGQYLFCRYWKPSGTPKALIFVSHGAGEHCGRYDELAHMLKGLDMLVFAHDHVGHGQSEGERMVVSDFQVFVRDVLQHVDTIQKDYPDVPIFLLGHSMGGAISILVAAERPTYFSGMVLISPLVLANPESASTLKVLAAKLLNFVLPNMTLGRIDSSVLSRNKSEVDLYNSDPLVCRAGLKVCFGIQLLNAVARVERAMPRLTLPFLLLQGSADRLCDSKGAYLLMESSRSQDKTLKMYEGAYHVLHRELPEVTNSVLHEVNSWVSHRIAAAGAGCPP
Description: In Vitro Competitive Activity-Based Protein Profiling.
Proteomes (mouse brain membrane fraction or cell lysates) (50 μL, 1.0 mg/mL total protein concentration) were preincubated with varying concentrations of inhibitors at 37° C. After 30 min, FP—Rh (1.0 μL, 50 μM in DMSO) was added and the mixture was incubated for another 30 min at 37° C. Reactions were quenched with SDS loading buffer (50 μL-4×) and run on SDS-PAGE.

ABHD6 [2] = target: T2, ABHD6 (Mus musculus (Mouse), UniProt Q8R2Y0); assay: In vitro competitive activity-based protein profiling (mouse brain membrane fraction or cell lysates), ABHD6 band; type: biochemical; details: for inhibition at 1 µM: read-out: ABHD6 % Inh 1 μM (mouse); for IC50: competitive ABPP
T2 sequence (Q8R2Y0 whole entry): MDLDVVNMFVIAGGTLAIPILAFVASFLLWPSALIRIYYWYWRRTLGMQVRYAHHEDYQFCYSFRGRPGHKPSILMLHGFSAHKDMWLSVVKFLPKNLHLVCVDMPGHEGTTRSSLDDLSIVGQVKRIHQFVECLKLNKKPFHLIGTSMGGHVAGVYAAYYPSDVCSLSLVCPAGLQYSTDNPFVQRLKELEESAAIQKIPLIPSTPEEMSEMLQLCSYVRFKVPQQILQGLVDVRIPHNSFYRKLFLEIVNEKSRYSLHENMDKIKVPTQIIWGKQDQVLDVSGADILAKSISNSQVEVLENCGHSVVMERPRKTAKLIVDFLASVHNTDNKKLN
Summary of the method: (§1)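 Competitive ABPP: proteome 1.0 mg/mL protein + inhibitor, 30 min, 37° C; FP-Rh probe (stock 50 μM in DMSO) added, 30 min, 37° C; SDS quench, SDS-PAGE, fluorescent band intensity read.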

FAAH [3] = target: T3, FAAH (Mus musculus (Mouse), UniProt O08914); assay: In vitro competitive activity-based protein profiling (mouse brain membrane fraction or cell lysates), FAAH band; type: biochemical; details: for inhibition at 1 µM: read-out: FAAH % Inh 1 μM (mouse); for IC50: competitive ABPP
T3 sequence (O08914 whole entry): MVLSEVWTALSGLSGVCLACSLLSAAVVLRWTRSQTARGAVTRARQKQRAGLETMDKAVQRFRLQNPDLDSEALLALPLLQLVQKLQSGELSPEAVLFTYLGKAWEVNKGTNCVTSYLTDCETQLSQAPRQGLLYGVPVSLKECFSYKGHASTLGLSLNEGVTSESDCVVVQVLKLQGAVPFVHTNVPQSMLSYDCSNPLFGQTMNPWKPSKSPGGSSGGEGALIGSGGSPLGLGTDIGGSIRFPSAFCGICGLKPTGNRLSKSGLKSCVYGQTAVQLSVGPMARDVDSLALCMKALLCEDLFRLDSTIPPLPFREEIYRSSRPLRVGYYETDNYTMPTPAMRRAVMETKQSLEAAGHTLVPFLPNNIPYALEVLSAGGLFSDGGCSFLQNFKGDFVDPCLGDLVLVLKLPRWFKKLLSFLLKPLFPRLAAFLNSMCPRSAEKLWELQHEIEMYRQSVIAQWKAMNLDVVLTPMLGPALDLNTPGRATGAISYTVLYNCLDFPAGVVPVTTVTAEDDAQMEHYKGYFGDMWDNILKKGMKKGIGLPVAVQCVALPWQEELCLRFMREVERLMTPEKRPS
Summary of the method: as §1

MAGL [4] = target: MAGL (Homo sapiens (Human), UniProt Q99685); assay: In vitro competitive activity-based protein profiling (human prefrontal cortex or cell membrane fractions; hMAGL expressed in HEK293T cells); type: biochemical
Sequence of MAGL (Homo sapiens (Human), UniProt Q99685) (Q99685 whole entry): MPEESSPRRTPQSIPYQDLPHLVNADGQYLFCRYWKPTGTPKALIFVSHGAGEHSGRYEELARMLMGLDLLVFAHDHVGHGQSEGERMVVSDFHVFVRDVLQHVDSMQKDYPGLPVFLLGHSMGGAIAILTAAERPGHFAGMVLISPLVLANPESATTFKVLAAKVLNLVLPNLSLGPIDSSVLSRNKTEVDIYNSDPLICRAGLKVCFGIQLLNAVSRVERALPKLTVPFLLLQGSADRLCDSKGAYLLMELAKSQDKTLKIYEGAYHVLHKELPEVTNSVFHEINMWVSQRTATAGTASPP
Description: In Vitro Competitive Activity-Based Protein Profiling (Human).
Proteomes (human prefrontal cortex or cell membrane fractions) (50 μL, 1.0-2.0 mg/mL total protein concentration) were preincubated with varying concentrations of inhibitors at 37° C. After 30 min, FP—Rh or JW912 (1.0 μL, 50 μM in DMSO) was added and the mixture was incubated for another 30 min at room temperature. Reactions were quenched with SDS loading buffer (15 μL-4×) and run on SDS-PAGE.
Recombinant Expression of Human MAGL in HEK293T Cells.
Cell lysates were diluted with mock proteomes for use in competitive ABPP experiments.

MAGL [5] = target: T1, MAGL; assay: Mouse brain proteomes from inhibitor treated mice (oral gavage, sacrificed 4 h after administration, ABPP analysis); type: in vivo, mouse (C57Bl/6J); details: 5 mg/kg oral gavage
Summary of the method: (§2)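 Percent inhibition in brain tissue measured by ABPP 4 h after a single oral gavage dose (5 mg/kg) to wild-type C57Bl/6J mice; vehicle was, for example, PEG400/Ethanol/PBS at 7/2/1.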

FAAH [6] = target: T3, FAAH; assay: Mouse brain proteomes from inhibitor treated mice (oral gavage, sacrificed 4 h after administration, ABPP analysis), FAAH; type: in vivo, mouse (C57Bl/6J); details: 5 mg/kg oral gavage
Summary of the method: as §2

ABHD6 [7] = target: T2, ABHD6; assay: Mouse brain proteomes from inhibitor treated mice (oral gavage, sacrificed 4 h after administration, ABPP analysis), ABHD6; type: in vivo, mouse (C57Bl/6J); details: 5 mg/kg oral gavage
Summary of the method: as §2

[8] = human proteome, competitive ABPP

inhibition at 1 µM (MAGL [1]; mouse proteome) [%]	IC50 (MAGL [1]; mouse proteome) [nM]	inhibition at 1 µM (ABHD6 [2]; mouse proteome) [%]	IC50 (ABHD6 [2]; mouse proteome) [nM]	inhibition at 1 µM (FAAH [3]; mouse proteome) [%]	IC50 (FAAH [3]; mouse proteome) [nM]	IC50 (MAGL [4]; [8]) [nM]	MAGL % Inh 5 mg/kg (mouse) (MAGL [5])	FAAH % Inh 5 mg/kg (mouse) (FAAH [6])	ABHD6 % Inh 5 mg/kg (mouse) (ABHD6 [7])	inhibition at 1 µM (MAGL [1]; mouse) [%]	inhibition at 1 µM (ABHD6 [2]; mouse) [%]	inhibition at 1 µM (FAAH [3]; mouse) [%]	IC50 (MAGL [4]; human) [nM]	Compound
> 75		< 25		< 25		< 100	### (### is ≥75%)	# (# is <25%)	# (# is <25%)					O=C(O)[C@@H]1CCCN(c2cc(C(F)(F)F)ccc2CN2CCCC23CCN(C(=O)OC(C(F)(F)F)C(F)(F)F)CC3)C1 [Example 214]
							### (### is ≥75%)	# (# is <25%)	# (# is <25%)	> 75	25 to 75	< 25	< 100	O=C(O)[C@H]1CCCCN1c1cc(CN2CCCC23CCN(C(=O)OC(C(F)(F)F)C(F)(F)F)CC3)cc(C(F)(F)F)c1 [Example 274]
> 75	< 100	< 25	> 1000	< 25	> 1000	< 100	### (### is ≥75%)	# (# is <25%)	# (# is <25%)					O=C(OC(C(F)(F)F)C(F)(F)F)N1CCC2(CCCN2Cc2ccc(C(F)(F)F)c(N3CCOCC3)c2)CC1 [Example 133, 1,1,1,3,3,3-Hexafluoropropan-2-yl 1-(3-morpholino-4-(trifluoromethyl)benzyl)-1,8-diazaspiro[4.5]decane-8-carboxylate]

Further lines, the compound ahead of its results:

Compound	inhibition at 1 µM (MAGL [1]; mouse proteome) [%]	IC50 (MAGL [1]; mouse proteome) [nM]	inhibition at 1 µM (ABHD6 [2]; mouse proteome) [%]	IC50 (ABHD6 [2]; mouse proteome) [nM]	inhibition at 1 µM (FAAH [3]; mouse proteome) [%]	IC50 (FAAH [3]; mouse proteome) [nM]	IC50 (MAGL [4]; [8]) [nM]	MAGL % Inh 5 mg/kg (mouse) (MAGL [5])	FAAH % Inh 5 mg/kg (mouse) (FAAH [6])	ABHD6 % Inh 5 mg/kg (mouse) (ABHD6 [7])	inhibition at 1 µM (MAGL [1]; mouse) [%]	inhibition at 1 µM (ABHD6 [2]; mouse) [%]	inhibition at 1 µM (FAAH [3]; mouse) [%]	IC50 (MAGL [4]; human) [nM]
O=C(O)C1CCN(c2cc(C(F)(F)F)ccc2CN2CCCC23CCN(C(=O)OC(C(F)(F)F)C(F)(F)F)CC3)CC1 [Example 121, 1-(2-((8-(((1,1,1,3,3,3-Hexafluoropropan-2-yl)oxy)carbonyl)-1,8-diazaspiro[4.5]decan-1-yl)methyl)-5-(trifluoromethyl)phenyl)piperidine-4-carboxylic acid]	> 75	< 100	< 25	> 1000	< 25	> 1000	< 100	### (### is ≥75%)	# (# is <25%)	# (# is <25%)				
CN(C)C(=O)C1CCN(c2cc(C(F)(F)F)ccc2CN2CCCC23CCN(C(=O)OC(C(F)(F)F)C(F)(F)F)CC3)CC1 [Example 16, 1,1,1,3,3,3-Hexafluoropropan-2-yl 1-(2-(4-(dimethylcarbamoyl)piperidin-1-yl)-4-(trifluoromethyl)benzyl)-1,8-diazaspiro[4.5]decane-8-carboxylate]	> 75	< 100	< 25	> 1000	< 25	> 1000	< 100	# (# is <25%)	# (# is <25%)	# (# is <25%)				
O=C(O)C1CCN(c2cc(CN3CCCC34CCN(C(=O)OC(C(F)(F)F)C(F)(F)F)CC4)cc(C(F)(F)F)c2)CC1 [Example 123, 1-(3-((8-(((1,1,1,3,3,3-Hexafluoropropan-2-yl)oxy)carbonyl)-1,8-diazaspiro[4.5]decan-1-yl)methyl)-5-(trifluoromethyl)phenyl)piperidine-4-carboxylic acid]	> 75	< 100	< 25	> 1000	< 25	> 1000	< 100	### (### is ≥75%)	# (# is <25%)	## (## is equal to or greater than 25% but less than 75%)				
O=C(O)C1CCN(c2cc(C(F)(F)F)ccc2CN2CCCC23CCN(C(=O)OC(C(F)(F)F)C(F)(F)F)CC3)C1 (stereo not shown) [Example 199]	> 75	< 100	25 to 75	> 1000	< 25	> 1000	< 100	## (## is equal to or greater than 25% but less than 75%)	# (# is <25%)	# (# is <25%)				
O=C(O)[C@@H]1CCCCN1c1cc(CN2CCCC23CCN(C(=O)OC(C(F)(F)F)C(F)(F)F)CC3)cc(C(F)(F)F)c1 [Example 196, (S)-1-(3-((8-(((1,1,1,3,3,3-Hexafluoropropan-2-yl)oxy)carbonyl)-1,8-diazaspiro[4.5]decan-1-yl)methyl)-5-(trifluoromethyl)phenyl)piperidine-2-carboxylic acid]	> 75		< 25		< 25		< 100	### (### is ≥75%)	# (# is <25%)	# (# is <25%)				
CC1(C(=O)O)CN(c2cc(CN3CCCC34CCN(C(=O)OC(C(F)(F)F)C(F)(F)F)CC4)cc(C(F)(F)F)c2)CCO1 (stereo not shown) [Example 195, 4-(3-((8-(((1,1,1,3,3,3-hexafluoropropan-2-yl)oxy)carbonyl)-1,8-diazaspiro[4.5]decan-1-yl)methyl)-5-(trifluoromethyl)phenyl)-2-methylmorpholine-2-carboxylic acid]	> 75	< 100	< 25	> 1000	< 25	> 1000	< 100	# (# is <25%)	# (# is <25%)	# (# is <25%)				
O=C(O)c1cc(CN2CCCC23CCN(C(=O)OC(C(F)(F)F)C(F)(F)F)CC3)ccc1C(F)(F)F [Example 179, 5-((8-((1,1,1,3,3,3-Hexafluoropropan-2-yloxy)carbonyl)-1,8-diazaspiro[4.5]decan-1-yl)methyl)-2-(trifluoromethyl)benzoic acid]	> 75	100 to 1000	< 25	> 1000	< 25	> 1000	< 100	### (### is ≥75%)	## (## is equal to or greater than 25% but less than 75%)	# (# is <25%)				
O=C(O)C1CCN(c2cc(F)cc(CN3CCCC34CCN(C(=O)OC(C(F)(F)F)C(F)(F)F)CC4)c2)CC1 [Example 236]								### (### is ≥75%)	# (# is <25%)	# (# is <25%)	> 75	< 25	< 25	< 100
NC(=O)C1CCN(Cc2cc(C(F)(F)F)ccc2CN2CCCC23CCN(C(=O)OC(C(F)(F)F)C(F)(F)F)CC3)CC1 [Example 275]								### (### is ≥75%)	# (# is <25%)	# (# is <25%)	> 75	25 to 75	< 25	< 100
O=C(OC(C(F)(F)F)C(F)(F)F)N1CCC2(CCCN2Cc2ccc(C(F)(F)F)cc2N2CCN(CCF)CC2)CC1 [Example 20, 1,1,1,3,3,3-Hexafluoropropan-2-yl 1-(2-(4-(2-fluoroethyl)piperazin-1-yl)-4-(trifluoromethyl)benzyl)-1,8-diazaspiro[4.5]decane-8-carboxylate]		< 100		> 1000		> 1000	< 100	## (## is equal to or greater than 25% but less than 75%)	# (# is <25%)	# (# is <25%)				
